Measurements: patent US9062004B2, “Cannabinoid-2 agonists” (Allergan, Inc., priority 2010, dated 2015)
Where two headings read alike, the source gives them in different places.

Experiments:
[1] = molecular target: human CB1 cannabinoid receptor (Homo sapiens (Human), UniProt P21554); test: Radioligand binding assay, CB1 ([3H]-CP 55,940 competition); conditions: plasma membranes of HEK 293 EBNA cells transfected with human CB1; 0.72 nM [3H]-CP 55,940; NA = not active
Procedure: (§1) A. Radioligand Binding Assay
(§2) Plasma membranes prepared from HEK 293 EBNA cells transfected with human CB1 or CB2 cannabinoid receptors ([…] protein, receptor concentration; PerkinElmer) were used for the radioligand binding studies. The composition of incubation buffer for CB1 assay was 50 mM Tris base, 2.5 mM EDTA, 5 mM MgCl2 and 0.5 mg/ml fatty acid free BSA and for CB2 assay was 50 mM Tris base, 2.5 mM EGTA, 5 mM MgCl2 and 1 mg/ml fatty acid free BSA; pH was adjusted to 7.4 by adding 1N HCl. Plasma membranes were diluted with incubation buffer to provide a final protein concentration of 2.4 μg (CB1) or 8 μg (CB2) per well in non-binding surface polystyrene 96-well assay plates (Corning). Compound solutions were prepared in silanized glass tubes and dispensed using pipette tips with SUPERSLIK™ surface. Competition studies were performed using a final concentration of 0.72 nM [^3H]-CP 55,940 (100-180 Ci/mmol, specific activity; PerkinElmer) against test compounds. Non-specific binding was determined using 10 uM of unlabeled CP 55,940. Incubations were performed in 96-well assay plates at a final volume of 200 ul for 90 min (CB1) or 60 min (CB2) at room temperature. Binding reactions were terminated by the addition of ice-cold incubation buffer and rapid filtration through a glass fiber filter using a cell harvester (Inotech). This was followed by 8 additional washes. The glass fiber filter (0.26 mm thickness, 1-1.5 um retention; Inotech) was presoaked in cold incubation buffer containing 0.05% polyethylenimine. The filters were oven-dried at 50° C. for 60 min and counting performed using a Beckman Coulter LS 6500 Multi-Purpose Scintillation Counter (Beckman-Coulter). Binding was determined in duplicate for at least 4 separate experiments.

[2] = molecular target: human CB2 cannabinoid receptor (Homo sapiens (Human), UniProt P34972); test: Radioligand binding assay, CB2 ([3H]-CP 55,940 competition); conditions: for CB2 Selectivity: CB2 versus CB1 binding (ratio of CB1 IC50 to CB2 IC50); for IC50: plasma membranes of HEK 293 EBNA cells transfected with human CB2, 0.72 nM [3H]-CP 55,940, NA = not active
Procedure: as §1, §2

[3] = tested on: mouse isolated vas deferens; test: Mouse isolated vas deferens (MVD) bioassay, electrically stimulated contractions; type: cell-based; conditions: Mus musculus
[4] = vas deferens of male Swiss Webster mice, electrically evoked contractions, NA = not active, read-out: MVD Assay EC50

Chain of human CB1 cannabinoid receptor (P21554 whole entry): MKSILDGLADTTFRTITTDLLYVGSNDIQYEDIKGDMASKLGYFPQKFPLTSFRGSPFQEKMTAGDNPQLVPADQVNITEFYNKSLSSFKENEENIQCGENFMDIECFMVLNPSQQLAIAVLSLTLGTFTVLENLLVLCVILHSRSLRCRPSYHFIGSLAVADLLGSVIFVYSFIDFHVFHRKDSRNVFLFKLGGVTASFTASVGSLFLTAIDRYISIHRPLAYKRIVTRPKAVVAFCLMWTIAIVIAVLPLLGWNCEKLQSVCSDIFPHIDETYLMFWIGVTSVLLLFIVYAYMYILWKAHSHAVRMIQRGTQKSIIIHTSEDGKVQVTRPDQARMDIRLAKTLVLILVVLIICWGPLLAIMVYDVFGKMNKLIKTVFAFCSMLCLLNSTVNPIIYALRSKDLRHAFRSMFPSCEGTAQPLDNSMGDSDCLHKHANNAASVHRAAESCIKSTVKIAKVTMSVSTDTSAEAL
Chain of human CB2 cannabinoid receptor (P34972 whole entry): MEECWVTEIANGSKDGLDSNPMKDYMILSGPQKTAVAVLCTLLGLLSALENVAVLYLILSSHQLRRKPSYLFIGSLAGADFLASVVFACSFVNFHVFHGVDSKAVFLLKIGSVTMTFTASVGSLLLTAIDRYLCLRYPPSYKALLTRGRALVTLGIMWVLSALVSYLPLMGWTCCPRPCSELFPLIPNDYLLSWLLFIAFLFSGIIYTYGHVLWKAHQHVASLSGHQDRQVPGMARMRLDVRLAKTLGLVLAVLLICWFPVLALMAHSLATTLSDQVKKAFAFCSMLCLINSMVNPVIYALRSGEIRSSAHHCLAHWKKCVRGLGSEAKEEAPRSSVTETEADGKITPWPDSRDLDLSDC

Compound	IC50 [1] [nM]	CB2 Selectivity [2]	IC50 [2] [nM]	EC50 [3, 4] [nM]	EC50 ([3]; read-out: MVD Assay EC50 (nM)) [nM]
CN(C)CCN(C)c1cnn(C2CC(C)(C)CC(C)(C)C2)c(=O)c1Cl [Compound 31, 4-Chloro-5-(2-dimethylaminoethylmethylamino)-2-(3,3,5,5-tetramethyl-cyclohexyl)pyridazin-3-one]	2630	132	20	330	–
CCCn1ncc2c(=O)n(C3CC(C)(C)CC(C)(C)C3)ncc21 [Compound 34, 1-Propyl-5-(3,3,5,5-tetramethyl-cyclohexyl)pyrazolo[3,4-d]pyridazin-4-one]	257	15	17	–	21
CCCn1cc2c(=O)n(C3CC(C)(C)CC(C)(C)C3)ncc2n1 [Compound 35, 2-Propyl-5-(3,3,5,5-tetramethylcyclohexyl)pyrazolo[3,4-d]pyridazin-4-one]	> 10000	>42	240	–	1200
CC1(C)CC(n2ncc3c(cnn3CCN3CCOCC3)c2=O)CC(C)(C)C1 [Compound 36, 1-(2-Morpholin-4-ylethyl)-5-(3,3,5,5-tetramethylcyclohexyl)pyrazolo[3,4-d]pyridazin-4-one]	219	26	8.5	33	–
CC1(C)CC(n2ncc3nn(CCN4CCOCC4)cc3c2=O)CC(C)(C)C1 [Compound 37, 2-(2-Morpholin-4-ylethyl)-5-(3,3,5,5-tetramethylcyclohexyl)pyrazolo[3,4-d]pyridazin-4-one]	> 10000	>7	1510	–	1400
CN(C)CCn1ncc2c(=O)n(C3CC(C)(C)CC(C)(C)C3)ncc21 [Compound 38, 1-(2-Dimethylaminoethyl)-5-(3,3,5,5-tetramethylcyclohexyl)pyrazolo[3,4-d]pyridazin-4-one]	3980	38	105	130	–
